Measured values reported in patent US20070254864A1, “CHROMIUM COMPLEXES” (Mandrillus Pharma, LLC, priority 2006, published 2007).

System: db/db mice (BKS.Cg-m+/+Lepr^db/J)
Test: In vivo efficacy: control of body mass in db/db mice
Settings: five week old at start, ad libitum p.o. in drinking water (5 mM chromium, pH 5.8), on average 1 mg/kg/day, over 22 weeks, control mice receiving water reached 43 g
Description: The mice were otherwise fed normal chow. Over the course of 22 weeks, the mice consumed on average 1 mg/kg/day of the compound. Mice on treatment reached an average mass of 37 g, while control mice receiving water reached an average mass of 43 g.

How did the average mass reached turn out when Chromium Quinolinate [Example 1] was run?
Its average mass reached is 37 g.
